Patent US9980943B2, “Methods of treating muscular dystrophy” (BOARD OF REGENTS OF THE NEVADA SYSTEM OF HIGHER EDUCATION, …, priority 2013, dated 2018)
Where two headings read alike, the source gives them in different places.

Test system: α7 integrin (LacZ reporter in α7LacZ+/− myoblasts)
Experiment: qHTS of the LOPAC library and MLSMR (online screen, α7LacZ+/− myoblasts)
Details: for activation at 0.307 µM / activation at 1.53 µM / activation at 7.66 µM / activation at 38.3 µM / Emax / EC50: Mus musculus, Myoblast; for activation at 0.307 µM: read-out: Activity at 0.307 uM [%] **; for activation at 1.53 µM: read-out: Activity at 1.530 uM [%] **; for activation at 7.66 µM: read-out: Activity at 7.660 uM [%] **; for activation at 38.3 µM: read-out: Activity at 38.30uM [%] **; for EC50: read-out: Fit LogAC50 (converted)
[1] = 48 h, read-out: Fit Infinite Activity [%]

Row | Compound | activation at 0.307 µM (48 h) [%] | activation at 1.53 µM (48 h) [%] | activation at 7.66 µM (48 h) [%] | activation at 38.3 µM (48 h) [%] | Emax [1] [%] | EC50 [µM] | Curve Description | Score | Emax (read-out: Max Response [%]) [%]
1 | COc1cc(=O)n(C)c2ccccc12 [Compound 25] | -16.5 | 11.1 | 54.5 | 63 | 64.1 | 2.24 | – | – | –
2 | CCOC(=O)c1sc(=N)n(-c2ccc(OC)cc2)c1C [Compound 26] | -25.4 | 4.59 | 41.9 | 56.1 | 59.6 | 2 | – | – | –
3 | Cc1ccc(OCC(=O)N2CCN(S(=O)(=O)c3ccc4c(c3)OCCO4)CC2)c(C)c1 [Compound 27] | -26.2 | 3.31 | 51.6 | 53.8 | 55 | 2 | – | – | –
4 | CC(NC(=O)c1cn(C)c2ccc(S(=O)(=O)N3CCCC3)cc2c1=O)c1ccccc1 (stereo not shown) [Compound 28] | -36 | -20.6 | 48.9 | 54.7 | 55.3 | 2.82 | – | – | –
5 | Cc1cc(NC(=O)CCC(=O)N(Cc2cccnc2)C(C(=O)NC(C)(C)C)c2ccccc2Cl)no1 (stereo not shown) [Compound 29] | -23.8 | -13.5 | 36 | 54.9 | 55.7 | 3.98 | – | – | –
6 | COc1cc(/C=C2/C(=N)N3C(SC)=NSC3=NC2=O)ccc1OC(=O)c1ccco1 [Compound 30] | -18.3 | -9.07 | 55.5 | 73.4 | 73.6 | 3.98 | – | – | –
7 | COc1ccccc1CNc1cc(C)ccn1 [Compound 31] | -22.9 | -0.943 | 53.2 | 62.3 | 62.2 | 2.51 | – | – | –
8 | Cc1nn(C(C)(C)C)c(C)c1/C=N/OC(=O)Nc1ccc(Cl)c(Cl)c1 [Compound 32] | -28.1 | -9.46 | 51 | 59.8 | 60.2 | 2.82 | Complete | – | –
9 | CCOC(=O)C1CCCN(C(=O)CNS(=O)(=O)c2ccc(Br)s2)C1 (stereo not shown) [Compound 33] | -41.8 | -14.3 | 17 | 31.1 | 33.2 | 2 | – | – | –
10 | CCCCNC(=O)CSc1nnc(Cc2ccc(Cl)c(Cl)c2)c(O)n1 [Compound 34] | 9.41 | 43.8 | 74.3 | 75.4 | 76.4 | 1.41 | – | – | –
11 | O=Cc1ccc(C(=O)OCC(=O)N2CCCC2)cc1 [Compound 35] | 0 | 12 | 71.5 | 71.8 | 72.6 | 2.51 | – | – | –
12 | CC(C)/N=C(\S)NN=C1CCCCCCCCCCC1 [Compound 36] | 7.67 | 25.7 | 65.1 | 78.6 | 81.2 | 3.16 | – | – | –
13 | COc1ccc(S(=O)(=O)N(NC2=NS(=O)(=O)c3ccccc32)C(=O)C(C)C)cc1 [Compound 37] | -1.77 | 15.3 | 70.7 | 72.9 | 74.5 | 2.51 | – | – | –
14 | C/C(CC(=O)Nc1ccc(Cl)c(C(F)(F)F)c1)=N\NC(=O)c1cnccn1 [Compound 38] | -0.625 | -2.88 | 69.2 | 72.7 | 73.5 | 4.47 | – | – | –
15 | Cc1ccc(-c2onc3ccc(C(=O)/C=C/N(C)C)cc23)cc1 [Compound 39] | -7.76 | 5.51 | 52.9 | 69.1 | 69.5 | 3.55 | – | – | –
16 | Cc1cccn2c(=O)c3cc(C(=O)NC4CCCCC4)n(C)c3nc12 [Compound 40] | -13.7 | 5.58 | 25.2 | 427 | 433 | 14.1 | – | – | –
17 | COc1ccc(Cl)cc1NC(=O)CC(=O)Nc1cc(Cl)ccc1OC [Compound 41] | 8.75 | 9.71 | 34.1 | 453 | 457 | 14.1 | – | – | –
18 | COc1cc(/C=C/CN2CCN(Cc3ccc(C)o3)C(CCO)C2)ccc1O (stereo not shown) [Compound 42] | 20.1 | 0 | 32.1 | 481 | 485 | 14.1 | – | – | –

Row | Compound | activation at 0.307 µM (48 h) [%] | activation at 1.53 µM (48 h) [%] | activation at 7.66 µM (48 h) [%] | activation at 38.3 µM (48 h) [%] | Emax [1] [%] | EC50 [µM] | Curve Description | Score | Emax (read-out: Max Response [%]) [%]
19 | O=C(Cn1cccc1C(=O)c1ccccc1)NCCCc1ccccc1 [Compound 43] | 13.7 | 43.9 | 94.3 | 131 | 148 | 3.98 | – | – | –
20 | CC(=O)Nc1ccc(N(C(=O)c2cnccn2)C(C(=O)NC2CCCCC2)c2ccc(F)cc2)cc1 (stereo not shown) [Compound 44] | -13.5 | -18.8 | 38.1 | 308 | 311 | 11.2 | – | – | –
21 | CCOC(=O)C1=C(NC(=O)c2ccc(OC)c(S(=O)(=O)N3CCCCC3C)c2)Nc2ccccc2N=C1CC (stereo not shown) [Compound 45] | -16.6 | 0.0514 | 18.6 | 414 | 420 | 14.1 | – | 47 | 414
22 | COc1ccc(N2CCCC2)c(NC(=O)c2ccc([N+](=O)[O-])o2)c1 [Compound 46] | -29.7 | 4.44 | 77.6 | 156 | 196 | 7.94 | – | – | –
23 | CC(=O)Nc1ccc(NC(=O)[C@@H](NC(=O)c2cccc(C)c2)C(C)C)cc1 [Compound 47] | 17.2 | 32.2 | 97.3 | 142 | 154 | 5.62 | – | – | –
24 | O=C(O)c1cc(/N=C/c2c(O)oc3ccccc3c2=O)ccc1O [Compound 48] | -32 | -23.3 | 76.6 | 165 | 179 | 7.08 | – | – | –
25 | O=[N+]([O-])c1ccc(N2CCN(c3ccccc3F)CC2)nc1 [Compound 49] | 2.3 | 15.5 | 102 | 151 | 154 | 5.62 | – | – | –
26 | O=C1SC(Cc2ccccc2)C(=O)N1c1ccccc1 (stereo not shown) [Compound 50] | 7.9 | 9.4 | 94.1 | 176 | 186 | 7.94 | – | – | –
27 | Cc1ccc(NCc2nnc(SCC(=O)Nc3nnc(C)s3)n2C)cc1 [Compound 51] | -27.9 | -17.6 | 31.4 | 249 | 250 | 10 | – | – | –
28 | CC1CCCCN1c1ncnc(N)c1[N+](=O)[O-] (stereo not shown) [Compound 52] | -25.7 | 1.73 | 86.4 | 130 | 138 | 4.47 | – | – | –
29 | O=C(Nc1ccc(Cl)cc1N1CCOCC1)C1CCCCC1 [Compound 53] | 0 | 28.1 | 71.9 | 119 | 152 | 7.08 | – | – | –
30 | CCCn1c(-c2cc(OC)c(OC)c(OC)c2)nc2c1c(=O)[nH]c(=O)n2Cc1ccccc1 [Compound 54] | 42 | 58.6 | 120 | 213 | 262 | 12.6 | – | – | 213
31 | CS(=O)(=O)c1ccc(Cl)c(NC(=O)CSc2nncn2-c2ccccc2)c1 [Compound 55] | -24.6 | -12.1 | 3.46 | 252 | 253 | 12.6 | – | – | 252
32 | CC(C)(CC(=O)O)CC(=O)N1CCCN(c2nccc(C(F)(F)F)n2)CC1 [Compound 56] | 24 | 38.1 | 86.7 | 108 | 111 | 3.98 | – | – | 108
33 | COc1cc(CNCc2ccc(C(=O)O)cc2)ccc1OCc1ccc(F)cc1 [Compound 57] | 1 | 14.6 | 82.2 | 113 | 115 | 4.47 | – | – | 113
34 | COc1ccc(Nc2ncnc3ccc(C)cc23)cc1 [Compound 58] | -29.7 | 3.35 | 49.1 | 82.8 | 95.6 | 3.55 | – | – | 82.8
35 | COc1ccc(-n2c(C)c(C(C)=O)c3cc(OC(C)=O)ccc32)cc1 [Compound 59] | 0 | -6.19 | 48.5 | 184 | 185 | 10 | – | – | 184
36 | O=C(COC(=O)c1cc2ccccc2oc1=O)Nc1ccc(F)cc1F [Compound 60] | -11 | 4.45 | 78.3 | 115 | 116 | 4.47 | – | – | 115
